These results are taken from patent publication EP3381907A1, “SYMMETRICAL 2-AMINOPHENYL-BENZAZOLYL-5-ACETATE COMPOUNDS AND THEIR USE AS ANTI-HEPARANASE” (Leadiant Biosciences SA, priority 2017, dated 2018).

For test [1], the system named is HT1080 (human fibrosarcoma). Put plainly: SRB Cell Cytotoxicity Assay, HT1080. In kind it is cell-based. The settings on record: HT-1080, HT1080, 72h treatment, read-out: Concentration (µM) of test compounds at which the cell growth is inhibited by 50 %. HT1080. The source says:
(§1) SRB Cell Cytotoxicity Assay is an assay based upon the quantitative staining of cellular proteins by sulforhodamine B (SRB). This assay can be used for high-throughput drug screening (Vichai & Kirkitara, Nature Protocol. 2006, 1, 112). Sulforhodamine B is an anionic aminoxanthene dye that forms an electrostatic complex with the basic amino acid residues of proteins under moderately acid conditions, which provides a sensitive linear response.
(§2) To assess a putative antiproliferative activity of the selected compounds, HT1080 (human fibrosarcoma), U87MG (human glioblastoma astrocytoma) and U2OS (human osteosarcoma) cell lines were treated for 72h, in triplicate, with increasing concentrations of heparanase inhibitors. Inhibition of cell proliferation was then measured by the classical colorimetric SRB Cell Cytotoxicity assay. Absorbance was measured by spectrophotometer at a wavelength of 510 nm and cell proliferation was determined as percent with respect to control cells (cells treated with the vehicle alone). EC50 values were then determined by GraphPad Prism.

Test [2] relates to U2OS (human osteosarcoma). Nature of the test: SRB Cell Cytotoxicity Assay, U2OS. In kind it is cell-based. The note with it: 72h treatment, read-out: Concentration (µM) of test compounds at which the cell growth is inhibited by 50 %. U2OS.
Text: as §1, §2

Test [3] concerns U87MG (human glioblastoma astrocytoma). Put plainly: SRB Cell Cytotoxicity Assay, U87MG. In kind it is cell-based. The note with it: U-87 MG, 72h treatment, read-out: Concentration (µM) of test compounds at which the cell growth is inhibited by 50 %. U87MG.
Text: as §1, §2

A further test concerns the target T1, heparanase (Homo sapiens, UniProt Q9Y251).
T1 sequence (Q9Y251 158-543 limits assumed): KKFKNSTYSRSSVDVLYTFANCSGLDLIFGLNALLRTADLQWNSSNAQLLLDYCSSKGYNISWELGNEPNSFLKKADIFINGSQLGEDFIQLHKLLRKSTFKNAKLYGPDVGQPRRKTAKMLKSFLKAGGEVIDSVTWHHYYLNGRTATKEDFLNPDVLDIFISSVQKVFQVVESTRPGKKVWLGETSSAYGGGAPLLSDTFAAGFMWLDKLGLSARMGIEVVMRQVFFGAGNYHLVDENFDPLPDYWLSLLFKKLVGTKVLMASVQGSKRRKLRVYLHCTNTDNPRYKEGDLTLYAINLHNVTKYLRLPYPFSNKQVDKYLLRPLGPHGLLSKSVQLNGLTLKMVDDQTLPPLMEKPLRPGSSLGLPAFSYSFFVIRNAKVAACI
T1 sequence (Q9Y251 36-109 limits assumed): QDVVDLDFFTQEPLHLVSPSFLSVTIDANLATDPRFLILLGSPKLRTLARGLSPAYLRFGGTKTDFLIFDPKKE
Nature of the test: AGA*IA assay: colorimetric fondaparinux cleavage assay for heparanase inhibition (WST-1). It is filed as biochemical. The settings on record: 2.5 nM heparanase, 100 µM fondaparinux, pH 5.0, 3 h at 37°C; class symbols. As to the method: All compounds were tested in a simple, accurate and robust microplate assay based on the cleavage of the synthetic heparin fragment, the pentasaccharide Fondaparinux (AGA*IA). This assay was originally developed by Hammond and coworkers [Hammond E, Li CP, Ferro V. Development of a colorimetric assay for heparanase activity suitable for kinetic analysis and inhibitor screening. Anal. Biochem. 396(1), 112-116 (2010)], where Fondaparinux corresponds to the methyl glycoside of the antithrombin III (ATIII)-activating pentasaccharide sequence of heparin. Fondaparinux is cleaved by heparanase to generate a reducing disaccharide, which can be quantitatively measured via a colorimetric or a fluorescence assay, the last by the fluorescent sensor polymer-H [Schiemann S, Lühn S, Alban S. Development of both colorimetric and fluorescence heparinase activity assays using fondaparinux as substrate. Anal. Biochem. 427(1), 82-89 (2012)].
The assay measures the appearance of the disaccharide product of heparanase-catalyzed fondaparinux cleavage colorimetrically using the tetrazolium salt WST-1. Assay was essentially performed as described with minor modifications. Briefly, NUNC ELISA 96-well plates were pre-treated with a solution of 4% BSA (bovin serum albumin) in phosphate-buffered saline containing 0.05% Tween 20 (PBST), for 2 h at 37°C, then washed three times with PBST, dried by tapping on paper towel and stored at -20°C. Before use, once again, the plates were washed with PBST.
Assay was carried out with 100 µl/well of assay solution containing 40 mM sodium acetate buffer (pH 5.0), 100 µM fondaparinux, 2.5 nM heparanase and serial dilutions of test compounds (tested in triplicate). Plates were sealed with adhesive tape and incubated, in the dark, for 3 h at 37°C, followed by development with 1.69 mM of the tetrazolium salt WST-1 solution in 0.1 M NaOH, for 1 h at 60°C. Then, the absorbance at 560 nm was measured through a microplate reader (Victor 3, Perkin Elmer).
Finally, the measurements were corrected by subtracting both the reagent background and the inner absorbance value of test compound.
On the technique in general: Tetrazolium assays rely on reduction of a dye to a coloured formazan, in cell work by metabolically active cells.

Bounds are passed on as bounds.

In the case of `O=C(Cc1ccc2oc(-c3ccc(NC(=O)Nc4ccc(-c5nc6cc(CC(=O)N[C@@H](Cc7ccccc7)C(=O)O)ccc6o5)cc4F)c(F)c3)nc2c1)N[C@@H](Cc1ccccc1)C(=O)O` [Compound 26, (2S,2'S)-2,2'-((2,2'-(((Carbonylbis(azanediyl))bis(3-fluoro-4,1-phenylene))bis(benzo[d]oxazole-2,5-diyl))bis(acetyl))bis(azanediyl))bis(3-phenylpropanoic acid)], the EC50 in test [1], in test [2] and in test [3] was above 10 µM in each case. For the same molecule, the IC50 (in general, the concentration needed to halve the response being measured) on heparanase fell in the range of 500 to 990 nM. With `O=C(Cc1ccc2[nH]c(-c3ccc(NC(=O)Nc4ccc(-c5nc6cc(CC(=O)N[C@@H](Cc7ccccc7)C(=O)O)ccc6[nH]5)cc4F)c(F)c3)nc2c1)N[C@@H](Cc1ccccc1)C(=O)O` [Compound 8, (2S,2'S)-2,2'-((2,2'-(((Carbonylbis(azanediyl))bis(3-fluoro-4,1-phenylene))bis(1H-benzo[d]imidazole-2,5-diyl))bis(acetyl))bis(azanediyl))bis(3-phenylpropanoic acid)], the IC50 on heparanase is 500 to 990 nM. As for `O=C(O)CNC(=O)Cc1ccc2oc(-c3ccc(NC(=S)Nc4ccc(-c5nc6cc(CC(=O)NCC(=O)O)ccc6o5)cc4F)c(F)c3)nc2c1` [Compound 38, 2,2'-((2,2'-(((Thiocarbonylbis(azanediyl))bis(3-fluoro-4,1-phenylene))bis(benzo[d]oxazole-2,5-diyl))bis(acetyl))bis(azanediyl))diacetic acid], the EC50 in test [1], in test [2] and in test [3] was above 10 µM throughout. The same molecule gave an IC50 on heparanase of 50 to 490 nM. Turning to `CC(C)CCNC(=O)Cc1ccc2oc(-c3ccc(NC(=O)Nc4ccc(-c5nc6cc(CC(=O)NCCC(C)C)ccc6o5)cc4F)c(F)c3)nc2c1` [Compound 28, 2,2'-(((Carbonylbis(azanediyl))bis(3-fluoro-4,1-phenylene))bis(benzo[d]oxazole-2,5-diyl))bis(N-isopentylacetamide)], the IC50 on heparanase was 1000 to 20000 nM. Molecule `O=C(O)Cc1ccc2[nH]c(-c3ccc(NC(=S)Nc4ccc(-c5nc6cc(CC(=O)O)ccc6[nH]5)cc4F)c(F)c3)nc2c1` [Compound 12, 2,2'-(((Thiocarbonylbis(azanediyl))bis(3-fluoro-4,1-phenylene))bis(1H-benzo[d]imidazole-2,5-diyl))diacetic acid] came in with an IC50 against heparanase of 500 to 990 nM. For the molecule `O=C(O)CNC(=O)Cc1ccc2[nH]c(-c3ccc(NC(=O)Nc4ccc(-c5nc6cc(CC(=O)NCC(=O)O)ccc6[nH]5)cc4F)c(F)c3)nc2c1` [Compound 7, 2,2'-((2,2'-(((carbonylbis(azanediyl))bis(3-fluoro-4,1-phenylene))bis(1H-benzo[d]imidazole-2,5-diyl))bis(acetyl))bis(azanediyl))diacetic acid], the IC50 at heparanase lay in the range of 1000 to 20000 nM. At heparanase, `O=C(O)Cc1ccc2[nH]c(-c3ccc(NC(=O)Nc4ccc(-c5nc6cc(CC(=O)O)ccc6[nH]5)cc4F)c(F)c3)nc2c1` [Compound 4, 2,2'-(((Carbonylbis(azanediyl))bis(3-fluoro-4,1-phenylene))bis(1H-benzo[d]imidazole-2,5-diyl))diacetic acid] showed an IC50 of 500 to 990 nM. Same read-out and setting: with `O=C(O)Cc1ccc2oc(-c3ccc(NC(=S)Nc4ccc(-c5nc6cc(CC(=O)O)ccc6o5)cc4F)c(F)c3)nc2c1` [Compound 36, 2,2'-(((Thiocarbonylbis(azanediyl))bis(3-fluoro-4,1-phenylene))bis(benzo[d]oxazole-2,5-diyl))diacetic acid] the figure was 1000 to 20000 nM; with `O=C(O)Cc1ccc2oc(-c3ccc(NC(=S)Nc4ccc(-c5nc6cc(CC(=O)O)ccc6o5)cc4)cc3)nc2c1` [Compound 33, 2,2'-(((thiocarbonylbis(azanediyl))bis(4,1-phenylene))bis(benzo[d]oxazole-2,5-diyl))diacetic acid], 1000 to 20000 nM; with `N=C(Nc1ccc(-c2nc3cc(CC(=O)O)ccc3o2)cc1)Nc1ccc(-c2nc3cc(CC(=O)O)ccc3o2)cc1` [Compound 40, 2,2'-((((Iminomethylene)bis(azanediyl))bis(4,1-phenylene))bis(benzo[d]oxazole-2,5-diyl))diacetic acid], 1000 to 20000 nM.

Take `CC(C)C[C@H](NC(=O)Cc1ccc2oc(-c3ccc(NC(=O)Nc4ccc(-c5nc6cc(CC(=O)N[C@@H](CC(C)C)B(O)O)ccc6o5)cc4F)c(F)c3)nc2c1)B(O)O` [Compound 31, (1R,1'R)-(((2,2'-(((Carbonylbis(azanediyl))bis(3-fluoro-4,1-phenylene))bis(benzo[d]oxazole-2,5-diyl))bis(acetyl))bis(azanediyl))bis(3-methylbutane-1,1-diyl))diboronic acid]: on heparanase, the IC50 lay in the range of 1000 to 20000 nM. Turning to `O=C(O)Cc1ccc2oc(-c3ccc(NC(=O)Nc4ccc(-c5nc6cc(CC(=O)O)ccc6o5)cc4)cc3)nc2c1` [Compound 19, 2,2'-(((Carbonylbis(azanediyl))bis(4,1-phenylene))bis(benzo[d]oxazole-2,5-diyl))diacetic acid], the EC50 in test [1], in test [2] and in test [3] was above 10 µM in each case. The molecule further came in with a half-inhibitory concentration (IC50) on heparanase of 1000 to 20000 nM. As for `O=C(Cc1ccc2[nH]c(-c3ccc(NC(=O)Nc4ccc(-c5nc6cc(CC(=O)NCB(O)O)ccc6[nH]5)cc4F)c(F)c3)nc2c1)NCB(O)O` [Compound 9, (((2,2'-(((Carbonylbis(azanediyl))bis(3-fluoro-4,1-phenylene))bis(1H-benzo[d]imidazole-2,5-diyl))bis(acetyl))bis(azanediyl))bis(methylene))diboronic acid], the 50% inhibitory concentration (IC50) against heparanase fell in the range of 1000 to 20000 nM.
